According to publication PMC7216583 (Parasites & Vectors, 2020):
Where a name gives a salt, the structure may show the parent alone. Read-outs that look alike come from different tables or passages of the source.

Legend:
PARP1 = target: PARP1; set-up: method as in S-inhibitor; details: ref S-inhibitor; cited from earlier work
[1] = system: Toxoplasma gondii RH-2F tachyzoites; assay: microbe, parasite or virus in culture; details: 72 h
ErbB4 = system: ErbB4; set-up: method as in S-inhibitor; details: ref S-inhibitor; cited from earlier work
EGFR [2] = system: EGFR; set-up: method as in S-inhibitor; details: ref S-inhibitor; cited from earlier work
MEK1/2 = system: MEK1/2; set-up: method as in S-inhibitor; details: ref S-inhibitor; cited from earlier work
HER2/ErbB2 = system: HER2/ErbB2; set-up: method as in S-inhibitor; details: ref S-inhibitor; cited from earlier work
ErbB3 = system: ErbB3; set-up: method as in S-inhibitor; details: ref S-inhibitor; cited from earlier work
FGFR3 = system: FGFR3; set-up: method as in S-inhibitor; details: ref S-inhibitor; cited from earlier work
FGFR1 = system: FGFR1; set-up: method as in S-inhibitor; details: ref S-inhibitor; cited from earlier work
Plk1 = system: Plk1; set-up: method as in S-inhibitor catalog; details: vendor brief description; ref S-inhibitor catalog; cited from earlier work
p110α [3] = system: p110α; set-up: method as in S-inhibitor catalog; details: vendor brief description; ref S-inhibitor catalog; cited from earlier work
ERβ = system: ERβ; set-up: method as in S-inhibitor; details: ref S-inhibitor; read-out: IC50, ERβ binding; cited from earlier work
ERα = details: read-out: IC50, ERα binding; ref S-inhibitor; cited from earlier work
5-HT2 receptor = target: 5-HT2 receptor; set-up: method as in S-inhibitor; details: ref S-inhibitor; read-out: Ki, serotonin 5-HT2; cited from earlier work
in vitro = details: human, Host viability (%) mean
dopamine D2 = target: dopamine D2; set-up: method as in S-inhibitor; details: ref S-inhibitor; cited from earlier work
EGFR [4] = system: EGFR; set-up: method as in library vendor description; details: ref library vendor description; cited from earlier work
ErbB2 = system: ErbB2; set-up: method as in library vendor description; details: ref library vendor description; cited from earlier work
[5] = target: serotonin-norepinephrine reuptake; details: read-out: Ki, serotonin-norepinephrine reuptake inhibitor; ref S-inhibitor; cited from earlier work
hERG K+ channel = details: cited from earlier work
If = system: If; set-up: method as in S-inhibitor; details: ref S-inhibitor; cited from earlier work
smoothened [6] = system: smoothened; set-up: method as in S-inhibitor; details: mouse; ref S-inhibitor; cited from earlier work
smoothened [7] = system: smoothened; set-up: method as in S-inhibitor; details: human; ref S-inhibitor; cited from earlier work
glucokinase (GK) = target: glucokinase (GK); set-up: method as in S-inhibitor; details: ref S-inhibitor; read-out: EC50, glucokinase activation; cited from earlier work
V617F mutant JAK2 = system: V617F mutant JAK2; set-up: method as in S-inhibitor; details: in Ba/F3 cells; ref S-inhibitor; cited from earlier work
c-Raf = system: c-Raf; set-up: method as in S-inhibitor; details: ref S-inhibitor; cited from earlier work
VEGFR2 [8] = system: VEGFR2; set-up: method as in S-inhibitor; details: ref S-inhibitor; cited from earlier work
Src = system: Src; set-up: method as in S-inhibitor; details: ref S-inhibitor; cited from earlier work
Abl = system: Abl; set-up: method as in S-inhibitor; details: ref S-inhibitor; read-out: IC50, c-Abl; cited from earlier work
EphB4 = system: EphB4; set-up: method as in S-inhibitor; details: ref S-inhibitor; cited from earlier work
p110α [9] = system: p110α; set-up: method as in S-inhibitor; details: ref S-inhibitor; cited from earlier work
p110β = system: p110β; set-up: method as in S-inhibitor; details: ref S-inhibitor; cited from earlier work
p110δ = system: p110δ; set-up: method as in S-inhibitor; details: ref S-inhibitor; cited from earlier work
p110γ = system: p110γ; set-up: method as in S-inhibitor; details: ref S-inhibitor; cited from earlier work
bFGF = system: bFGF; set-up: method as in S-inhibitor catalog; details: vendor brief description; ref S-inhibitor catalog; cited from earlier work
VEGF-A = system: VEGF-A; set-up: method as in S-inhibitor catalog; details: vendor brief description; ref S-inhibitor catalog; cited from earlier work
PDE4 = system: PDE4; set-up: method as in S-inhibitor; details: ref S-inhibitor; cited from earlier work
P388 = system: P388; set-up: method as in S-inhibitor; details: ref S-inhibitor; read-out: IC50, P388 cell line; cited from earlier work
MX1 = system: MX1; set-up: method as in S-inhibitor; details: ref S-inhibitor; read-out: IC50, MX1 cell line; cited from earlier work
MV522 = system: MV522; set-up: method as in S-inhibitor; details: ref S-inhibitor; read-out: IC50, MV522 cell line; cited from earlier work
SKOV3 = system: SKOV3; set-up: method as in S-inhibitor; details: ref S-inhibitor; read-out: IC50, SKOV3 cell line; cited from earlier work
Colo205 = system: Colo205; set-up: method as in S-inhibitor; details: ref S-inhibitor; read-out: IC50, Colo205 cell line; cited from earlier work
ALK5 = details: read-out: IC50, ALK5; ref S-inhibitor; cited from earlier work
ALK4 = system: ALK4; set-up: method as in S-inhibitor; details: ref S-inhibitor; cited from earlier work
VEGFR2 [10] = system: VEGFR2; set-up: method as in S-inhibitor catalog; details: vendor brief description; ref S-inhibitor catalog; cited from earlier work
PDGFRβ = system: PDGFRβ; set-up: method as in S-inhibitor catalog; details: vendor brief description; ref S-inhibitor catalog; cited from earlier work
c-Kit = system: c-Kit; set-up: method as in S-inhibitor catalog; details: vendor brief description; ref S-inhibitor catalog; cited from earlier work
VEGFR3 = system: VEGFR3; set-up: method as in S-inhibitor catalog; details: vendor brief description; ref S-inhibitor catalog; cited from earlier work
Bcr/Abl = system: Bcr/Abl; set-up: method as in S-inhibitor catalog; details: vendor brief description; ref S-inhibitor catalog; cited from earlier work
[11] = read-out: Parasite inhibition (%) mean, preliminary screen, mean
[12] = read-out: Parasite inhibition (%) mean, preliminary screen of compound library, mean
[13] = read-out: Parasite inhibition (%) mean

Structure (SMILES): CN(C)Cc1ccc(-c2nc3cccc4c3n2CCNC4=O)cc1 [AG14361]
- Ki (PARP1): < 5 nM
- inhibition of growth at 5 µM [1, 11]: 28.9%

Structure (SMILES): C=CC(=O)Nc1ccc2ncnc(Nc3ccc(OCc4cccc(F)c4)c(Cl)c3)c2c1 [AST-1306]
- IC50 (ErbB4): 0.8 nM
- IC50 (EGFR [2]): 0.5 nM
- inhibition of growth at 5 µM [1, 11]: -33.7%

Structure (SMILES): Cc1cc(C(=O)NOCCO)c(Nc2ccc(I)cc2F)n(C)c1=O [AZD8330]
- IC50 (MEK1/2): 7 nM
- inhibition of growth at 5 µM [1, 11]: -18.8%

Structure (SMILES): CNC(=O)CN1CCC(Oc2cc3c(Nc4cccc(Cl)c4F)ncnc3cc2OC)CC1 [AZD8931]
- IC50 (HER2/ErbB2): 3 nM
- inhibition of growth at 5 µM [1, 11]: -20%
- IC50 (ErbB3): 4 nM

Structure (SMILES): CCN1CCN(c2ccc(Nc3cc(N(C)C(=O)Nc4c(Cl)c(OC)cc(OC)c4Cl)ncn3)cc2)CC1 [BGJ398 (NVP-BGJ398)]
- IC50 (FGFR3): 1 nM
- inhibition of growth at 5 µM [1, 11]: -8.9%
- IC50 (FGFR1): 0.9 nM

Structure (SMILES): CC[C@@H]1C(=O)N(C)c2cnc(Nc3ccc(C(=O)N[C@H]4CC[C@H](N5CCN(CC6CC6)CC5)CC4)cc3OC)nc2N1C(C)C [BI6727 (Volasertib)]
- IC50 (Plk1): 0.87 nM
- inhibition of growth at 5 µM [1, 12]: 0.8%

Structure (SMILES): Nc1cc(C(F)(F)F)c(-c2cc(N3CCOCC3)nc(N3CCOCC3)n2)cn1 [BKM120 (NVP-BKM120)]
- inhibition of growth at 5 µM [1, 12]: 41.3%

Structure (SMILES): Cc1c(-c2ccc(O)cc2)n(Cc2ccc(OCCN3CCCCCC3)cc2)c2ccc(O)cc12 [Bazedoxifene HCl]
- inhibition of growth at 5 µM [1, 11]: -12.8%

Structure (SMILES): CCN1CCN(c2cc(-c3ccc(F)cc3)c3c(n2)CCCCCC3)CC1 [Blonanserin (Lonasen)]
- Ki (5-HT2 receptor): 3.98 nM
- viability at 72 h (in vitro): 88.3%
- inhibition of growth at 5 µM [1, 11]: 82.1%
- Ki (dopamine D2): 14.8 nM

Structure (SMILES): C=CC(=O)Nc1cc2c(Nc3ccc(F)c(Cl)c3)ncnc2cc1OCCCN1CCOCC1 [CI-1033 (Canertinib)]
- inhibition of growth at 5 µM [1, 11]: -5.8%

Structure (SMILES): CNCC[C@H](Oc1cccc2ccccc12)c1cccs1 [Duloxetine HCl (Cymbalta)]
- Ki [5]: 4.6 nM
- inhibition of growth at 5 µM [1, 13]: 30.9%

Structure (SMILES): CC1=NN(c2ccc(C)c(C)c2)C(=O)/C1=N/Nc1cccc(-c2cccc(C(=O)O)c2)c1O [Eltrombopag (SB-497115-GR)]
- IC50 (hERG K+ channel): 690 nM
- inhibition of growth at 5 µM [1, 12]: 0.7%

Structure (SMILES): COc1cc2c(cc1OC)CC(=O)N(CCCN(C)C[C@@H]1Cc3cc(OC)c(OC)cc31)CC2 [Ivabradine HCl (Procoralan)]
- IC50 (If): 2900 nM
- inhibition of growth at 5 µM [1, 11]: 0.6%

Structure (SMILES): Cc1c(C(=O)Nc2ccc(N3C[C@@H](C)O[C@@H](C)C3)nc2)cccc1-c1ccc(OC(F)(F)F)cc1 [LDE225 (NVP-LDE225, Erismodegib)]
- IC50 (smoothened [6]): 1.3 nM
- IC50 (smoothened [7]): 2.5 nM
- inhibition of growth at 5 µM [1, 11]: -3.8%

Structure (SMILES): O=C(Nc1ncc(SCCN2CCCC2)s1)[C@]1(c2ccc(S(=O)(=O)C3CC3)cc2)C[C@@H]1C1CCCCC1 [LY2608204]
- EC50 (glucokinase (GK)): 42 nM
- inhibition of growth at 5 µM [1, 13]: -25.9%

Structure (SMILES): Cc1cc(Nc2cc(CN3CCOCC3)c3nc(C)c(Cc4ccc(Cl)cc4F)n3n2)n[nH]1 [LY2784544]
- IC50 (V617F mutant JAK2): 55 nM
- inhibition of growth at 5 µM [1, 11]: 11.1%

Structure (SMILES): Cc1ccc(C(=O)Nc2cccc(C(F)(F)F)c2)cc1Nc1nc(-c2cccnc2)nc2c1cnn2C [NVP-BHG712]
- IC50 (c-Raf): 395 nM
- ED50, VEGFR2 (VEGFR2 [8]): 4200 nM
- IC50 (Src): 1270 nM
- inhibition of growth at 5 µM [1, 11]: -3.3%
- IC50 (Abl): 1670 nM
- ED50, EphB4 (EphB4): 25 nM

Structure (SMILES): Cc1ccccc1-n1c(Cn2ncc3c(N)ncnc32)nc2cccc(C)c2c1=O [PIK-293]
- IC50 (p110α [9]): 100000 nM
- IC50 (p110β): 25000 nM
- inhibition of growth at 5 µM [1, 11]: 1.1%
- IC50 (p110δ): 240 nM
- IC50 (p110γ): 10000 nM

Structure (SMILES): COc1ccc(COc2cc3oc(=O)c4cc(C(C)O)ccc4c3cc2OC)cc1 (stereo not drawn) [Palomid 529]
- IC50 (bFGF): 30 nM
- IC50 (VEGF-A): 10 nM
- inhibition of growth at 5 µM [1, 12]: -14.6%

Structure (SMILES): O=C(Nc1c(Cl)cncc1Cl)c1ccc(OC(F)F)c(OCC2CC2)c1 [Roflumilast (Daxas)]
- IC50 (PDE4): 0.2 to 4.3 nM
- inhibition of growth at 5 µM [1, 11]: -0.2%

Structure (SMILES): Cc1ccc(C(=O)N(CCCN)[C@@H](c2oc3cc(Cl)ccc3c(=O)c2Cc2ccccc2)C(C)C)cc1 [SB 743921]
- IC50 (P388): 14.4 nM
- IC50 (MX1): 0.06 nM
- IC50 (MV522): 1.7 nM
- IC50 (SKOV3): 0.2 nM
- inhibition of growth at 5 µM [1, 11]: 0.5%
- IC50 (Colo205): 0.07 nM

Structure (SMILES): Cc1cccc(-c2[nH]c(C(C)(C)C)nc2-c2ccc3c(c2)OCO3)n1 [SB-505124]
- IC50 (ALK5): 47 nM
- IC50 (ALK4): 129 nM
- inhibition of growth at 5 µM [1, 11]: -14.8%

Structure (SMILES): CNC(=O)c1cc(COc2nnc(Nc3ccc(Cl)cc3)c3ccoc23)ccn1 [Telatinib (BAY 57-9352)]
- IC50 (VEGFR2 [10]): 6 nM
- IC50 (PDGFRβ): 15 nM
- IC50 (c-Kit): 1 nM
- inhibition of growth at 5 µM [1, 12]: -15.6%
- IC50 (VEGFR3): 4 nM

Structure (SMILES): CCC[C@H](NC(=O)/C(C#N)=C/c1cccc(Br)n1)c1ccccc1 [WP1130]
- inhibition of growth at 5 µM [1, 12]: 1.7%
- IC50 (Bcr/Abl): 1800 nM
